How the values were obtained:
[1] = tested on: GABA, chloride, TBOB site; experiment: in vitro selectivity profile; assay type: binding; conditions: eslicarbazepine 400 μmol/L
human GRIA1 receptor = human GRIA1 receptor (Homo sapiens, UniProt P42261); experiment: AMPA-receptor-mediated currents in CHO cells; assay type: cell-based; conditions: CHO cells, human GRIA1
[2] = target: Kinase, protein, MAPK3 (ERK1, P44MAPK) (h) (Homo sapiens, UniProt P27361); experiment: in vitro selectivity profile; assay type: biochemical
[3] = tested on: Potassium channel, ATP-sensitive; experiment: in vitro selectivity profile; assay type: binding; conditions: eslicarbazepine 400 μmol/L
[4] = target: human α1β2γ2 GABAA receptors (Homo sapiens, UniProt P14867+P18507+P47870); experiment: submaximal GABA currents in Ltk cells; assay type: cell-based
Dopamine, D4.2 (h) = Dopamine, D4.2 (h) (Homo sapiens, UniProt P21917, DEL265-296); experiment: in vitro selectivity profile; assay type: binding
[5] = target: Protease, caspase, CASP-3 (h) (Homo sapiens, UniProt P42574); experiment: in vitro selectivity profile; assay type: biochemical
Oxidase, MAO-A, central = experiment: in vitro selectivity profile; assay type: biochemical; conditions: eslicarbazepine 400 μmol/L
Melatonin, nonselective = experiment: in vitro selectivity profile; assay type: binding; conditions: eslicarbazepine 400 μmol/L
Serotonin, 5HT2C = experiment: in vitro selectivity profile; assay type: binding; conditions: eslicarbazepine 400 μmol/L
Adrenergic, alpha2A (h) = Adrenergic, alpha2A (h) (Homo sapiens, UniProt P08913); experiment: in vitro selectivity profile; assay type: binding
[6] = tested on: Glutamate, NMDA, glycine (strychnine-insensitive); experiment: in vitro selectivity profile; assay type: binding; conditions: eslicarbazepine 400 μmol/L
Serotonin, 5HT1A (h) = Serotonin, 5HT1A (h) (Homo sapiens, UniProt P08908); experiment: in vitro selectivity profile; assay type: binding
Sodium, site 2 = experiment: in vitro selectivity profile; assay type: binding; conditions: eslicarbazepine 400 μmol/L
hCav2.1 calcium channels = hCav2.1 calcium channels (Homo sapiens, UniProt O00555); experiment: whole-cell patch clamp, hCav2.1 in CHO cells; assay type: cell-based; conditions: IC50, hCav2.1 calcium peak currents, 0.3–1000 μmol/L, holding potential −80 mV
Dopamine, D2s (h) = Dopamine, D2s (h) (Homo sapiens, UniProt P14416); experiment: in vitro selectivity profile; assay type: binding
Neurokinin, NK3 (NKB) = experiment: in vitro selectivity profile; assay type: binding; conditions: eslicarbazepine 400 μmol/L
Dopamine, D1 (h) = Dopamine, D1 (h) (Homo sapiens, UniProt P21728); experiment: in vitro selectivity profile; assay type: binding
[7] = target: Esterase, acetylcholine (h) (Homo sapiens, UniProt P22303); experiment: in vitro selectivity profile; assay type: biochemical
Neuropeptide, NPY2 (h) = Neuropeptide, NPY2 (h) (Homo sapiens, UniProt P49146); experiment: in vitro selectivity profile; assay type: binding
Glutamate, kainate site = experiment: in vitro selectivity profile; assay type: binding; conditions: eslicarbazepine 400 μmol/L
[8] = target: Protease, caspase, CASP-8 (h) (Homo sapiens, UniProt Q14790); experiment: in vitro selectivity profile; assay type: biochemical
[9] = target: Kinase, protein, PKCb2 (h) (Homo sapiens, UniProt P05771); experiment: in vitro selectivity profile; assay type: biochemical
Kinase, protein, PKA (h) = Kinase, protein, PKA (h) (Homo sapiens, UniProt P17612); experiment: in vitro selectivity profile; assay type: biochemical
[10] = tested on: transient Na+ current (INaT); conditions: ref Döser et al. [2013b], [2015]; cited from earlier work
Purinergic, P2Y = experiment: in vitro selectivity profile; assay type: binding; conditions: eslicarbazepine 400 μmol/L
Opioid, delta 2 (h) = Opioid, delta 2 (h) (Homo sapiens, UniProt P41143); experiment: in vitro selectivity profile; assay type: binding
Serotonin, 5HT1D (h) = Serotonin, 5HT1D (h) (Homo sapiens, UniProt P28221); experiment: in vitro selectivity profile; assay type: binding
Sigma 2 = experiment: in vitro selectivity profile; assay type: binding; conditions: eslicarbazepine 400 μmol/L
Serotonin, 5HT6 (h) = Serotonin, 5HT6 (h) (Homo sapiens, UniProt P50406); experiment: in vitro selectivity profile; assay type: binding
[11] = target: Norepinephrine transporter (h) (Homo sapiens, UniProt P23975); experiment: in vitro selectivity profile; assay type: binding
P-glycoprotein = conditions: ref Fortuna et al. [2012]; cited from earlier work
[12] = target: human Nav1.3 sodium channels (Homo sapiens, UniProt Q9NY46); experiment: whole-cell patch clamp, Nav1.3 in CHO-K1 cells; assay type: cell-based; conditions: 250 μmol/L
[13] = target: Serotonin transporter (h) (Homo sapiens, UniProt P31645); experiment: in vitro selectivity profile; assay type: binding
[14] = eslicarbazepine; ref Bialer and Soares-da-Silva [2012]; cited from earlier work
[15] = tested on: Transferase, choline acetyl; experiment: in vitro selectivity profile; assay type: biochemical; conditions: eslicarbazepine 400 μmol/L

Sequence of human α1β2γ2 GABAA receptors (P14867 28-456): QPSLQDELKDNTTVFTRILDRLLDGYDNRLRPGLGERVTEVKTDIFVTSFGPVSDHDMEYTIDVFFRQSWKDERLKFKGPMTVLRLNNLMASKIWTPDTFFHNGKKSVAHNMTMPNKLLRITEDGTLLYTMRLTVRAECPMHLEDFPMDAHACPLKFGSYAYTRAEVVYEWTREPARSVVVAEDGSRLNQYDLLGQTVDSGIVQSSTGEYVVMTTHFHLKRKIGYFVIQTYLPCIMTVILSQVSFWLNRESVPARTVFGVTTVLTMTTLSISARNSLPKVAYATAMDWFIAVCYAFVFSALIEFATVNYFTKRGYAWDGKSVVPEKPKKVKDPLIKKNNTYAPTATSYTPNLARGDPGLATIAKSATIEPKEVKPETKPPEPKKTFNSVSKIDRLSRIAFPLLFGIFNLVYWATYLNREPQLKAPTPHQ
Sequence of human α1β2γ2 GABAA receptors (P47870 25-512 limits assumed): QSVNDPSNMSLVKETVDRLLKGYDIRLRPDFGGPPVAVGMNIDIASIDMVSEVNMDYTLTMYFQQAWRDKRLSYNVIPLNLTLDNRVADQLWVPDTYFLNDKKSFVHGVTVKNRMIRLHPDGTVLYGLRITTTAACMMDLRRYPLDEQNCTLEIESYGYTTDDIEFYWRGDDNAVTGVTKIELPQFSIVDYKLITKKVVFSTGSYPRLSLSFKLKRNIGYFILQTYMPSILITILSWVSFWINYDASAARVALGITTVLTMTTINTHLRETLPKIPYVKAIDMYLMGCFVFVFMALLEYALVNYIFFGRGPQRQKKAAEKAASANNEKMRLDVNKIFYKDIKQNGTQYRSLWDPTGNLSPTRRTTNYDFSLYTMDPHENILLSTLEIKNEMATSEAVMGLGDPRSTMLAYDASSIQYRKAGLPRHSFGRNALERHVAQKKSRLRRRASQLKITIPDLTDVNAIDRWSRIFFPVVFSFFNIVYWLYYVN
Sequence of human α1β2γ2 GABAA receptors (P18507 40-475): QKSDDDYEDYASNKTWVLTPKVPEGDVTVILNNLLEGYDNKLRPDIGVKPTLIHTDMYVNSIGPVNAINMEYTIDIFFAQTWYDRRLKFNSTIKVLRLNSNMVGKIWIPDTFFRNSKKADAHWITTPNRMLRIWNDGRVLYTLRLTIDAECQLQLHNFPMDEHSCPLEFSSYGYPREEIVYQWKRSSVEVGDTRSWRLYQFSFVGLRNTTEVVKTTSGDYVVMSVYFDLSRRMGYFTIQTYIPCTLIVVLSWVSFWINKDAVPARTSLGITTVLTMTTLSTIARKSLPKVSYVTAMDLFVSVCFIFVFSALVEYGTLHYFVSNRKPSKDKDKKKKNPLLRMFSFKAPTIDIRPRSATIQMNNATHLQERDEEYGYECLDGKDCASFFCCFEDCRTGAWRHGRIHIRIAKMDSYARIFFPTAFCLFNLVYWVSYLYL
Sequence of human Nav1.3 sodium channels (Q9NY46 whole entry): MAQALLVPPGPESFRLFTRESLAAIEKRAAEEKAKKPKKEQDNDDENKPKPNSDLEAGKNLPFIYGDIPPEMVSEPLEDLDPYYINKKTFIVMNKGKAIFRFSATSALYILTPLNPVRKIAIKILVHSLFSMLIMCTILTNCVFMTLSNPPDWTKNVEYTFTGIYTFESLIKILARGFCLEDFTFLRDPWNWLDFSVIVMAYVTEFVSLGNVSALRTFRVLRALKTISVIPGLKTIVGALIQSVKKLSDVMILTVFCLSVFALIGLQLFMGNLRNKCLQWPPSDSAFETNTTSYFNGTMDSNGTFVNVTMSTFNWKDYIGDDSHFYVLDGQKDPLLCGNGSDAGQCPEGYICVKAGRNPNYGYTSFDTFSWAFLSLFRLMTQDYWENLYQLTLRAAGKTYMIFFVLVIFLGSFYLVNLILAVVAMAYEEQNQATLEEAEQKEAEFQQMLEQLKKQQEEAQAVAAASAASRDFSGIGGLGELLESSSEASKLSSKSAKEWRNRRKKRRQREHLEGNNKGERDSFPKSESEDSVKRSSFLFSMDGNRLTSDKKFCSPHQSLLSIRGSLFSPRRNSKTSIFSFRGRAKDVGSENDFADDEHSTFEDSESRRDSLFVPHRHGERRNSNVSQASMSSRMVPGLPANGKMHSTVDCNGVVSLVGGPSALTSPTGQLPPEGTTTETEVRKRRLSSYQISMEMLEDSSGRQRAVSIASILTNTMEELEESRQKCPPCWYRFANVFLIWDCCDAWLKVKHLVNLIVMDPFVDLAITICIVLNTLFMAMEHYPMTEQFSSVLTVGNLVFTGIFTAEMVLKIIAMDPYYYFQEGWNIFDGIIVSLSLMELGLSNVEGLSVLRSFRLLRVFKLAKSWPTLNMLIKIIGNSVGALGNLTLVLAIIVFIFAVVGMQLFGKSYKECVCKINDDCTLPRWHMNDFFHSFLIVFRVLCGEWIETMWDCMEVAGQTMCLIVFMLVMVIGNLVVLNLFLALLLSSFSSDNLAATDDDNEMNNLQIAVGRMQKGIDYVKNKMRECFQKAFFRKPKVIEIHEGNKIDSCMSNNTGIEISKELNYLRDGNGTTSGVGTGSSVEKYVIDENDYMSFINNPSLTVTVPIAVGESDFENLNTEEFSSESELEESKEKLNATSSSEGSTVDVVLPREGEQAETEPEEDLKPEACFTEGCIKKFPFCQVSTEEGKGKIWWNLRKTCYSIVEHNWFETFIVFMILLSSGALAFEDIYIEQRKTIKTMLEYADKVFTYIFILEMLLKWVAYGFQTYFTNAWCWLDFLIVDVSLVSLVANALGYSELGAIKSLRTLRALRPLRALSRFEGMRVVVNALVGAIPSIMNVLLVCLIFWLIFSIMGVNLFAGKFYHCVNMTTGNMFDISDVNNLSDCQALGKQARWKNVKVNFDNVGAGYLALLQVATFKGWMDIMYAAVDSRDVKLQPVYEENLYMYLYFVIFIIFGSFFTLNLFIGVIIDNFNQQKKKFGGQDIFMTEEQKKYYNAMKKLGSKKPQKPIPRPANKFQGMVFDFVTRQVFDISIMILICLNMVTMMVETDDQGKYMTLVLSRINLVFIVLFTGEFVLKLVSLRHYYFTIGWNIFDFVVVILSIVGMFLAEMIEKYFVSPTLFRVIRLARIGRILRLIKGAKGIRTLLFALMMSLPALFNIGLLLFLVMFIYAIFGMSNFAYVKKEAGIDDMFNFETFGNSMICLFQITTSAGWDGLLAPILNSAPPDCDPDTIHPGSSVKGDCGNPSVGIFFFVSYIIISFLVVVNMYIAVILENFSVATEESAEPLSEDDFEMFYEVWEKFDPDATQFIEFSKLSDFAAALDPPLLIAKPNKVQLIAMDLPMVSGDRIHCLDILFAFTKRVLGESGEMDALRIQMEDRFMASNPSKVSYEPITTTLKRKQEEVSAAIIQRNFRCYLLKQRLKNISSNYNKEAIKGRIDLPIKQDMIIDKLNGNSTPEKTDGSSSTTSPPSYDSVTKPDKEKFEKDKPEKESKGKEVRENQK
Sequence of Kinase, protein, MAPK3 (ERK1, P44MAPK) (h) (P27361 whole entry): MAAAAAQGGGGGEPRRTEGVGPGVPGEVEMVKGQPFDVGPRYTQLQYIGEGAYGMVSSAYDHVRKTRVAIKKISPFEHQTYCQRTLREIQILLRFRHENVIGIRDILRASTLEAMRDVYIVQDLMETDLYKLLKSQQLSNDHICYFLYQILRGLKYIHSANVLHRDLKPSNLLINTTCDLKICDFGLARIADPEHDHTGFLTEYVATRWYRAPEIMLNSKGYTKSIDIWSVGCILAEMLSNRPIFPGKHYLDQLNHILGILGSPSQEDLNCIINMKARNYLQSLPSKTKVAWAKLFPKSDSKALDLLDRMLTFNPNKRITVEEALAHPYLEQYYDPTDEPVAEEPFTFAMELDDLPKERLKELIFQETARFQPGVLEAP
Sequence of Neuropeptide, NPY2 (h) (P49146 whole entry): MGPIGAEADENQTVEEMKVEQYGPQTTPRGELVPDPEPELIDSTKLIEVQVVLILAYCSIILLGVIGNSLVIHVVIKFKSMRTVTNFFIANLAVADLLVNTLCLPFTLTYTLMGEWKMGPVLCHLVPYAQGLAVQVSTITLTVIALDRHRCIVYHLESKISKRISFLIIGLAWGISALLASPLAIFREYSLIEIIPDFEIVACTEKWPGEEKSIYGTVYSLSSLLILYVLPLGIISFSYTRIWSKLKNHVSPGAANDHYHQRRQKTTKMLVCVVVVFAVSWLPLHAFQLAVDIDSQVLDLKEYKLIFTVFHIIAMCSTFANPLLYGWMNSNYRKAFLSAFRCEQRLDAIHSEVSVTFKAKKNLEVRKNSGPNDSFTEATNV
Sequence of Adrenergic, alpha2A (h) (P08913 whole entry): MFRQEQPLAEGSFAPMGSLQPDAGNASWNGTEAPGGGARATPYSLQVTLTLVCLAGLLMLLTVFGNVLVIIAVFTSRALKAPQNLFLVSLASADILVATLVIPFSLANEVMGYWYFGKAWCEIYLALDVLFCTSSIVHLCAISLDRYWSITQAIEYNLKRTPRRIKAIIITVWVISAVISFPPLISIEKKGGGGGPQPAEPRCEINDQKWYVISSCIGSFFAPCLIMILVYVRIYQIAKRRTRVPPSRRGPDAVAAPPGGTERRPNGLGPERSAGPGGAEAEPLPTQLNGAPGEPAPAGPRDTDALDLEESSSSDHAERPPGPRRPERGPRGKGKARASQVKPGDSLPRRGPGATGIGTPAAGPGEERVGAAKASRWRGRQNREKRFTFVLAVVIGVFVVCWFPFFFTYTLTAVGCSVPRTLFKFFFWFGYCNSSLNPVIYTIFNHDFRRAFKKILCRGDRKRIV
Sequence of Serotonin, 5HT1A (h) (P08908 whole entry): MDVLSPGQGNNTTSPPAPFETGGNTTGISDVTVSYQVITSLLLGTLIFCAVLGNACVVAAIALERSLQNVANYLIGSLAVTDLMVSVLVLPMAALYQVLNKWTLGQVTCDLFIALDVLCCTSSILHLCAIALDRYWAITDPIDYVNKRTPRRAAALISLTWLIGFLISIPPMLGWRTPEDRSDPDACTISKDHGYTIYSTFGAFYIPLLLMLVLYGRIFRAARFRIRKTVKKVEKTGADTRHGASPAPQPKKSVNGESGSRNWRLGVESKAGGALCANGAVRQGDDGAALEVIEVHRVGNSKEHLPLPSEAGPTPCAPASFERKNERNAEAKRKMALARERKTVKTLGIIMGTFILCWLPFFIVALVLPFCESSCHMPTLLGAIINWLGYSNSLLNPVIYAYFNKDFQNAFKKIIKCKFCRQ

NC(=O)N1c2ccccc2C[C@H](O)c2ccccc21 [eslicarbazepine]
% inhibition [1]: 38.95%
IC50, AMPA currents (human GRIA1 receptor): neither eslicarbazepine nor CBZ significantly changed AMPA currents
inhibition at 400 µM [2]: 2.05%
% inhibition [3]: 6.78%
GABA inward current stimulation, α1β2γ2, Mean ± SEM ([4]; 50 μmol/L): 103.3 ± 2.0
GABA inward current stimulation, α1β2γ2, Mean ± SEM ([4]; 100 μmol/L): 95.9 ± 1.0
GABA inward current stimulation, α1β2γ2, Mean ± SEM ([4]; 250 μmol/L): 97.8 ± 1.1
GABA inward current stimulation, α1β2γ2, Mean ± SEM ([4]; 500 μmol/L): 99.4 ± 0.8
effect on submaximal α1β2γ2 GABA currents ([4]; 50–500 μmol/L): did not significantly change submaximal GABA currents
inhibition at 400 µM (Dopamine, D4.2 (h)): 0%
inhibition at 400 µM [5]: 0%
% inhibition (Oxidase, MAO-A, central): 15.98%
% inhibition (Melatonin, nonselective): 17.43%
% inhibition (Serotonin, 5HT2C): 3.67%
inhibition at 400 µM (Adrenergic, alpha2A (h)): 15.6%
% inhibition [6]: 13.21%
inhibition at 400 µM (Serotonin, 5HT1A (h)): 0.4%
% inhibition (Sodium, site 2): 34.46%
IC50 (hCav2.1 calcium channels): 7.84 mM
inhibition at 400 µM (Dopamine, D2s (h)): 0%
% inhibition (Neurokinin, NK3 (NKB)): 0.0%
inhibition at 400 µM (Dopamine, D1 (h)): 6.85%
inhibition at 400 µM [7]: 0%
inhibition at 400 µM (Neuropeptide, NPY2 (h)): 8.43%
% inhibition (Glutamate, kainate site): 1.56%
inhibition at 400 µM [8]: 0%
inhibition at 400 µM [9]: 0%
inhibition at 400 µM (Kinase, protein, PKA (h)): 3.67%
inhibition of firing of DGCs, control versus pilocarpine-treated rats [10]: equally effective in inhibiting firing of DGCs in control versus pilocarpine-treated rats
% inhibition (Purinergic, P2Y): 0.0%
inhibition at 400 µM (Opioid, delta 2 (h)): 7.91%
inhibition at 400 µM (Serotonin, 5HT1D (h)): 16.4%
% inhibition (Sigma 2): 6.11%
inhibition at 400 µM (Serotonin, 5HT6 (h)): 5.86%
inhibition at 400 µM [11]: 9.33%
intestinal transport M–S versus S–M and sensitivity to verapamil (P-glycoprotein): of the same magnitude and insensitive to the P-glycoprotein inhibitor verapamil
Fast inactivation V0.5 ([12]; mean ± SEM, n = 3–6): −40.68 ± 3.10 mV
Slow inactivation V0.5 ([12]; mean ± SEM, n = 3–6): −26.61 ± 2.74 mV
time constant for entering the slow inactivated state ([12]; control 20.29 sec): 14.02 s
inhibition at 400 µM [13]: 0%
binding to nonspecific proteins (protein binding) [14]: ~30%
% inhibition [15]: 0.0%
